These results are taken from PubChem BioAssay AID214 (DTP/NCI, 2004).

Values joined by “and” are separate entries in the source; they are usually repeats but may differ in a detail not shown here. Equal values may be shown once. Results filed as inconclusive are left out.

This test deals with B6C3F1 mice, colon carcinoma 38 s.c., T/C. In words: NCI In Vivo Anticancer Drug Screen. Data for tumor model Colon Carcinoma 38 (subcutaneous) in B6C3F1 mice. To be noted: endpoint: median tumor weight (est.), higher = larger tumour. As for the experimental part:
The antitumor activity of compounds was measured in mice bearing transplantable tumors. Survival or tumor size were measured and the results are expressed as the measurement made in the treated group (T) divided by the measurement made in the vehicle treated control group (C). The tumor model used in this assay is Colon Carcinoma 38 (subcutaneous) in B6C3F1 mice

[1] abbreviates: dose: 12.5 mg/kg/injection, schedule: Q07DX002 (ip), vehicle: Klucel (hydroxypropylcellulose) (HPC).
Where [2] appears, read: dose: 100.0 mg/kg/injection, schedule: Q07DX002 (ip), vehicle: Klucel (hydroxypropylcellulose) (HPC).
Where [3] appears, read: dose: 50.0 mg/kg/injection, schedule: Q07DX002 (ip), vehicle: Klucel (hydroxypropylcellulose) (HPC).
Where [4] appears, read: dose: 200.0 mg/kg/injection, schedule: Q07DX002 (ip), vehicle: Klucel (hydroxypropylcellulose) (HPC).
Where [5] appears, read: dose: 2.0 mg/kg/injection, schedule: Q07DX002 (ip), vehicle: saline.
[6] abbreviates: dose: 4.0 mg/kg/injection, schedule: Q07DX002 (ip), vehicle: saline.
The mark [7] stands for this setting: dose: 400.0 mg/kg/injection, schedule: Q07DX002 (ip), vehicle: Klucel (hydroxypropylcellulose) (HPC).
Where [8] appears, read: dose: 6.25 mg/kg/injection, schedule: Q07DX002 (ip), vehicle: saline.
[9] abbreviates: dose: 12.5 mg/kg/injection, schedule: Q07DX002 (ip), vehicle: saline.
[10] abbreviates: dose: 25.0 mg/kg/injection, schedule: Q07DX002 (ip), vehicle: saline.
[11] abbreviates: dose: 8.0 mg/kg/injection, schedule: Q07DX002 (ip), vehicle: saline.
Where [12] appears, read: dose: 25.0 mg/kg/injection, schedule: Q07DX002 (ip), vehicle: saline with Tween-80.
The mark [13] stands for this setting: dose: 50.0 mg/kg/injection, schedule: Q07DX002 (ip), vehicle: saline with Tween-80.
Where [14] appears, read: dose: 25.0 mg/kg/injection, schedule: Q07DX002 (ip), vehicle: Klucel (hydroxypropylcellulose) (HPC).
Where [15] appears, read: dose: 100.0 mg/kg/injection, schedule: Q07DX002 (ip), vehicle: saline with Tween-80.
[16] abbreviates: dose: 200.0 mg/kg/injection, schedule: Q07DX002 (ip), vehicle: saline with Tween-80.
Where [17] appears, read: dose: 400.0 mg/kg/injection, schedule: Q07DX002 (ip), vehicle: saline with Tween-80.
The mark [18] stands for this setting: dose: 50.0 mg/kg/injection, schedule: Q07DX002 (ip), vehicle: saline.
Where [19] appears, read: dose: 100.0 mg/kg/injection, schedule: Q07DX002 (ip), vehicle: saline.
Setting [20] is: dose: 200.0 mg/kg/injection, schedule: Q07DX002 (ip), vehicle: saline.
The mark [21] stands for this setting: dose: 400.0 mg/kg/injection, schedule: Q07DX002 (ip), vehicle: saline.

For `Cc1cn(C2CC(F)C(CO)O2)c(=O)[nH]c1=O` (centres undefined), where the note is “dose: 1800.0 mg/kg/injection, schedule: Q07DX002 (ip), vehicle: saline”, the T/C was 103 % of control.

Take `NC(CCl)=NCC12CC3CC(CC(C3)C1)C2`: the T/C runs as follows: under setting [1], 110 % of control; under setting [2], 94 % of control and 108 % of control.

For `O=c1[nH]cnc2nc(/N=N/SCCO)[nH]c12`, the T/C runs as follows: under setting [3], 115 % of control; under setting [2], 114 % of control; under setting [4], 101 % of control.

In the case of `CSCS(=O)C[C@H](CO)NC(=O)/C=C/c1c(C)[nH]c(=O)[nH]c1=O` (some centres undefined), the T/C runs as follows: under setting [5], 74 % of control; under setting [6], 66 % of control.

Consider `Cn1c(=O)[nH]c2nncnc2c1=O`, for which the T/C reads like this: (dose: 12.5 mg/kg/injection, schedule: Q07DX002 (ip), vehicle: water) 104 % of control and 112 % of control; (dose: 50.0 mg/kg/injection, schedule: Q07DX002 (ip), vehicle: water) 117 % of control and 119 % of control; (dose: 100.0 mg/kg/injection, schedule: Q07DX002 (ip), vehicle: water) 120 % of control.

Take `CO[C@@]12[C@H](COC(N)=O)C3=C(C(=O)C(C)=C(N)C3=O)N1C[C@@H]1N[C@@H]12`: the T/C is, setting by setting: (dose: 0.5 mg/kg/injection, schedule: Q07DX002 (ip), vehicle: saline) 77 % of control; under setting [6], 18 % of control and 19 % of control.

For `Cc1cc(=O)c2cccc(CC(=O)O)c2o1`, the T/C under setting [7] is 117 % of control.

Turning to `O=C1N[C@H]2[C@H](O)[C@H](O)[C@@H](O)[C@H](O)[C@@H]2c2cc3c(c(O)c21)OCO3`, the T/C is 113 % of control (dose: 0.88 mg/kg/injection, schedule: Q01DX008 (ip), vehicle: saline + alcohol); 105 % of control (dose: 1.75 mg/kg/injection, schedule: Q01DX008 (ip), vehicle: saline + alcohol); 88 % of control (dose: 3.5 mg/kg/injection, schedule: Q01DX008 (ip), vehicle: saline + alcohol).

For the compound `COc1ccc(C(=O)C(CN(C)C)CN(C)C)cc1`, the T/C (dose: 3.12 mg/kg/injection, schedule: Q07DX002 (ip), vehicle: saline) is 109 % of control; the T/C under setting [8] is 113 % of control; the T/C under setting [9] is 115 % of control; the T/C under setting [10] is 102 % of control.

For the compound `OC(C1CO1)C(O)C1CO1` (centres undefined), the T/C is 117 % of control under setting [5], 107 % of control under setting [6] and 57 % of control under setting [11].

Turning to `O=[N+]([O-])c1ccc(N(CCO)CCO)c2c1no[n+]2[O-]`, the T/C runs as follows: under setting [12], 85 % of control; under setting [13], 63 % of control.

Take `Cc1c(N)nc([C@H](CC(N)=O)NC[C@H](N)C(N)=O)nc1C(=O)N[C@H](C(=O)N[C@H](C)[C@@H](O)CC(=O)N[C@H](C(=O)NC(O[C@@H]1O[C@@H](C)[C@@H](N)[C@@H](O)[C@H]1O)C(O)c1nc(-c2nc(C(=O)NCCCCN)cs2)cs1)[C@@H](C)O)[C@@H](O[C@@H]1O[C@@H](CO)[C@@H](O)[C@H](O)[C@@H]1O[C@H]1O[C@H](CO)[C@@H](O)[C@H](OC(N)=O)[C@@H]1O)c1c[nH]cn1` (some centres undefined): the T/C under setting [6] was 54 % of control; the T/C under setting [11] is 35 % of control; the T/C (dose: 16.0 mg/kg/injection, schedule: Q07DX002 (ip), vehicle: saline) was 13 % of control; the T/C (dose: 32.0 mg/kg/injection, schedule: Q07DX002 (ip), vehicle: saline) is 25 % of control; the T/C (dose: 64.0 mg/kg/injection, schedule: Q07DX002 (ip), vehicle: saline) was 9 % of control.

In the case of `Cc1cc(NCCCCCCCCNc2cc(C)nc3cc(N(C)C)ccc23)c2ccc(N(C)C)cc2n1`, the T/C is, setting by setting: (dose: 3.12 mg/kg/injection, schedule: Q07DX002 (ip), vehicle: distilled water + Tween-80 + alcohol) 105 % of control; (dose: 6.25 mg/kg/injection, schedule: Q07DX002 (ip), vehicle: distilled water + Tween-80 + alcohol) 78 % of control; (dose: 12.5 mg/kg/injection, schedule: Q07DX002 (ip), vehicle: distilled water + Tween-80 + alcohol) 69 % of control; (dose: 25.0 mg/kg/injection, schedule: Q07DX002 (ip), vehicle: distilled water + Tween-80 + alcohol) 160 % of control.

Take `Cc1ccc(NCCN(C)C)c2c(=O)c3cc(O)ccc3sc12`: the T/C reads like this: under setting [14], 86 % of control; under setting [3], 90 % of control and 210 % of control; under setting [2], 67 % of control; under setting [7], 48 % of control.

Turning to `COc1cc2c[n+](C)c3c(c2cc1OC)Cc1cc2c(cc1-3)OCO2`, the T/C was 94 % of control under setting [13], 107 % of control under setting [15], 97 % of control under setting [16] and 85 % of control under setting [17].

Take `O=C(O)CSc1c(Cl)c(=O)oc2ccc(Cl)cc12`: the T/C was 73 % of control under setting [1]; 58 % of control under setting [14]; 57 % of control under setting [3]; 86 % of control under setting [2]; 67 % of control under setting [4].

Take `CCCCCc1cc(O)c2c(c1)OC(C)(C)[C@@H]1CCC(C)=C[C@@H]21`: the T/C by setting is: (dose: 200.0 mg/kg/injection, schedule: Q07DX002 (ip), vehicle: other) 81 % of control; (dose: 400.0 mg/kg/injection, schedule: Q07DX002 (ip), vehicle: other) 98 % of control.

`NC(=O)c1c[se]c(C2OC(CO)C(O)C2O)n1` (centres undefined): the T/C is, setting by setting: under setting [18], 90 % of control; under setting [19], 87 % of control; under setting [20], 84 % of control; under setting [21], 92 % of control; (dose: 800.0 mg/kg/injection, schedule: Q07DX002 (ip), vehicle: saline) 56 % of control.

With `O=c1[nH]c(=O)n([C@H]2CCCO2)cc1F`, the T/C runs as follows: (dose: 80.0 mg/kg/injection, schedule: Q07DX003 (ip), vehicle: Klucel (hydroxypropylcellulose) (HPC)) 51 % of control; (dose: 160.0 mg/kg/injection, schedule: Q07DX003 (ip), vehicle: Klucel (hydroxypropylcellulose) (HPC)) 85 % of control; (dose: 320.0 mg/kg/injection, schedule: Q07DX003 (ip), vehicle: Klucel (hydroxypropylcellulose) (HPC)) 80 % of control; (dose: 640.0 mg/kg/injection, schedule: Q07DX003 (ip), vehicle: Klucel (hydroxypropylcellulose) (HPC)) 25 % of control.

Consider `O=C1NC(=O)/C(=C/C=C/c2ccccc2)S1`, for which the T/C by setting is: under setting [16], 67 % of control; under setting [17], 86 % of control; (dose: 800.0 mg/kg/injection, schedule: Q07DX002 (ip), vehicle: saline with Tween-80) 63 % of control.

In the case of `CC(=O)CC(=O)CCC(=O)O`, the T/C under setting [18] is 87 % of control, the T/C under setting [19] was 88 % of control, the T/C under setting [20] is 86 % of control and the T/C under setting [21] was 89 % of control.

On to `O=C(O)Cc1cccc2c(=O)c(-c3ccccc3)coc12`, for which the T/C was 177 % of control under setting [19], 76 % of control under setting [20] and 121 % of control under setting [21].

On to `O=c1n(CC2CO2)c(=O)n(CC2CO2)n1CC1CO1` (centres undefined), for which the T/C is 72 % of control under setting [8], 67 % of control under setting [9], 87 % of control under setting [10] and 31 % of control under setting [18].

With `CC(CN1CC(=O)NC(=O)C1)N1CC(=O)NC(=O)C1` (centres undefined), the T/C is, setting by setting: under setting [2], 82 % of control; under setting [4], 40 % of control; under setting [7], 2 % of control; (dose: 800.0 mg/kg/injection, schedule: Q07DX002 (ip), vehicle: Klucel (hydroxypropylcellulose) (HPC)) 1 % of control.

For the compound `CN(C)C1C(=O)C(C(=O)NP(=O)(NCCCO)N(CCCl)CCCl)=C(O)C2(O)C(=O)C3=C(O)c4c(O)cccc4C(C)(O)C3CC12` (centres undefined), the T/C was 176 % of control under setting [15] and 42 % of control under setting [16].

As to `NS(=O)(=O)OCCCCCCCOS(N)(=O)=O`, the T/C was 214 % of control (dose: 12.5 mg/kg/injection, schedule: Q07DX002 (ip), vehicle: saline with Tween-80); 270 % of control under setting [12]; 192 % of control under setting [13]; 94 % of control under setting [15]; 104 % of control under setting [16].
